This note sets out measurements from patent US20240390340A1 (INCYTE CORPORATION, priority 2023, published 2024).

Like-named read-outs stand apart in the source and are kept apart here. Bounds are passed on as bounds.

The target in one test is KRAS G12D (Homo sapiens, UniProt P01116, G12D). Nature of the test: GDP-GTP exchange assay (bodipy-GDP/GppNHp, SOS1), KRAS G12D. The class given is biochemical. As to the method:
(§1) The inhibitor potency of the exemplified compounds was determined in a fluorescence based guanine nucleotide exchange assay, which measures the exchange of bodipy-GDP (fluorescently labeled GOP) for GppNHp (Non-hydrolyzable GTP analog) to generate the active state of KRAS in the presence of SOS1 (guanine nucleotide exchange factor). Inhibitors were serially diluted in DMSO and a volume of 0.1 μL was transferred to the wells of a black low volume 384-well plate. 5 μL/well volume of bodipy-loaded KRAS G12D diluted to 2.5 nM in assay buffer (25 mM Hepes pH 7.5, 50 mM NaCl, 10 mM MgCl2 and 0.01% Brij-35) was added to the plate and pre-incubated with inhibitor for 4 h at r.t. Appropriate controls (enzyme with no inhibitor or with a G12D inhibitor) were included on the plate. The exchange was initiated by the addition of a 5 μL/well volume containing 1 mM GppNHp and 300 nM SOS1 in assay buffer. The 10 μL/well reaction concentration of the bodipy-loaded KRAS G12D, GppNHp, and SOS1 were 2.5 nM, 500 μM, and 150 nM, respectively. The reaction plates were incubated at r.t. for 2 h, a time estimated for complete GDP-GTP exchange in the absence of inhibitor. For the KRAS G12V mutant, similar guanine nucleotide exchange assays were used with 2.5 nM as final concentration for the bodipy loaded KRAS proteins and 3 h incubation after adding GppNHp-SOS1 mixture. A cyclic peptide described to selectively bind G12D mutant (Sakamoto et al., BBRC 484.3 (2017), 605-611) or internal compounds with confirmed binding were used as positive controls in the assay plates. Fluorescence intensities were measured on a PheraStar plate reader instrument (BMG Labtech) with excitation at 485 nm and emission at 520 nm.
(§2) Either GraphPad prism or Genedata Screener SmartFit was used to analyze the data. The IC50 values were derived by fitting the data to a four parameter logistic equation producing a sigmoidal dose-response curve with a variable Hill coefficient.
(§3) The symbol “†” indicates IC50≤100 nM, “††” indicates IC50>100 nM but ≤1 μM; and “†††” indicates IC50 is >1 μM but ≤5 μM, “††††” indicates IC50 is >5 μM but ≤10 μM. “NA” indicates IC50 not available.

In the next test the target is KRAS G12V (Homo sapiens, UniProt P01116, G12V). Nature of the test: GDP-GTP exchange assay (bodipy-GDP/GppNHp, SOS1), KRAS G12V. The class given is biochemical. Here is the method: as §1, §2, §3
Chain of KRAS G12V (P01116 1-188 isoform P01116-2 G12V): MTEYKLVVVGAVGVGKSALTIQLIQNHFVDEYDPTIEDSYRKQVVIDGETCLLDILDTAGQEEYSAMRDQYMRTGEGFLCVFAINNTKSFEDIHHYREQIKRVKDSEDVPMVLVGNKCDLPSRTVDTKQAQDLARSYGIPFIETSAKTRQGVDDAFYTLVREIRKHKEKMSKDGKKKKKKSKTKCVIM
Where [1] appears, read: bodipy-loaded KRAS G12D 2.5 nM, 4 h pre-incubation, value for the most potent isomer quoted for certain compounds, read-out: G12D (KRAS G12D exchange assay IC50).
[2] abbreviates: KRAS G12V mutant, value for the most potent isomer quoted for certain compounds, read-out: G12V (KRAS G12V exchange assay IC50).
Where [3] appears, read: Table H, column G12D, for compounds isolated as several atropisomers/diastereoisomers the value for the most potent isomer is quoted, read-out: KRAS G12D exchange assay IC50.
The mark [4] stands for this setting: Table H, column G12V, for compounds isolated as several atropisomers/diastereoisomers the value for the most potent isomer is quoted, read-out: KRAS G12V exchange assay IC50.

Chain of KRAS G12D (P01116 1-188 isoform P01116-2 G12D): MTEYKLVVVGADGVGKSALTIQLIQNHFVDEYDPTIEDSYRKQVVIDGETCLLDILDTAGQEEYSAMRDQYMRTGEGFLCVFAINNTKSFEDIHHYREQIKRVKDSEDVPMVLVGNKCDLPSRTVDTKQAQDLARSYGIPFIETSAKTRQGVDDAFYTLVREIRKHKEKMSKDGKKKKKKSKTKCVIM

For orientation: IC50 means the concentration needed to halve the response being measured. In the case of `Cc1nc2c(F)c(-c3cccc(Cl)c3Cl)c(CCC#N)cc2c2c1cc([C@H]1C[C@H](n3nnc(-c4ccncc4)n3)CN1C(=O)C1CC1)n2[C@H]1[C@H]2CN[C@@H]1C2` (atropisomer, axis not shown) [Example 437], the IC50 on KRAS G12D (setting [1]) and at KRAS G12V (setting [2]) was no more than 100 nM each time. Take `Cc1nc2c(F)c(-c3cccc(Cl)c3Cl)c(CCC#N)cc2c2c1cc([C@H]1C[C@H](OCC3CCOCC3)CN1C(=O)C1CC1)n2[C@H]1[C@H]2CN[C@@H]1C2` [Example 29]: the IC50 on KRAS G12D (setting [3]) and on KRAS G12V (setting [4]) was no more than 100 nM throughout. In the case of `Cc1nc2c(F)c(-c3cccc(Cl)c3Cl)c(CCC#N)cc2c2c1cc([C@H]1C[C@H](O[C@@H]3CCOC3)CN1C(=O)C1CC1)n2[C@H]1[C@H]2CN[C@@H]1C2` [Example 30], the IC50 on KRAS G12D (setting [3]) and on KRAS G12V (setting [4]) was no more than 100 nM in each case. Consider `Cc1nc2c(F)c(-c3cccc(Cl)c3Cl)c(CCC#N)cc2c2c1cc([C@H]1C[C@H](Oc3ccc(N4CCOCC4)nc3)CN1C(=O)C1CC1)n2[C@H]1[C@H]2CN[C@@H]1C2` [Example 36, 3-(1-((1R,4R,5S)-2-Azabicyclo[2.1.1]hexan-5-yl)-2-((2R,4S)-1-(cyclopropanecarbonyl)-4-((6-morpholinopyridin-3-yl)oxy)pyrrolidin-2-yl)-7-(2,3-dichlorophenyl)-6-fluoro-4-methyl-1H-pyrrolo[3,2-c]quinolin-8-yl)propanenitrile], for which the IC50 at KRAS G12D (setting [3]) and on KRAS G12V (setting [4]) was no more than 100 nM throughout.

As for `Cc1nc2c(F)c(-c3cccc(Cl)c3Cl)c(CCC#N)cc2c2c1cc([C@H]1C[C@H](Oc3ccc(=O)n(C)c3)CN1C(=O)C1CC1)n2[C@H]1[C@H]2CN[C@@H]1C2` [Example 50], the IC50 on KRAS G12D (setting [3]) and at KRAS G12V (setting [4]) was no more than 100 nM in each case. In the case of `Cc1nc2c(F)c(-c3cccc(Cl)c3Cl)c(CCC#N)cc2c2c1cc([C@H]1C[C@H](n3cc(C4(C)CCCCC4)nn3)CN1C(=O)C1CC1)n2[C@H]1[C@H]2CN[C@@H]1C2` [Example 66, 3-(1-((1R,4R,5S)-2-Azabicyclo[2.1.1]hexan-5-yl)-2-((2R,4S)-1-(cyclopropanecarbonyl)-4-(4-(1-methylcyclohexyl)-1H-1,2,3-triazol-1-yl)pyrrolidin-2-yl)-7-(2,3-dichlorophenyl)-6-fluoro-4-methyl-1H-pyrrolo[3,2-c]quinolin-8-yl)propanenitrile], the IC50 at KRAS G12D (setting [3]) and on KRAS G12V (setting [4]) was no more than 100 nM in each case. Regarding `COc1ncnc2c1ccn2[C@H]1C[C@H](c2cc3c(C)nc4c(F)c(-c5cccc(Cl)c5Cl)c(CCC#N)cc4c3n2[C@H]2[C@H]3CN[C@@H]2C3)N(C(=O)C2CC2)C1` [Example 73, 3-(1-((1R,4R,5S)-2-Azabicyclo[2.1.1]hexan-5-yl)-2-((2R,4S)-1-(cyclopropanecarbonyl)-4-(4-methoxy-7H-pyrrolo[2,3-d]pyrimidin-7-yl)pyrrolidin-2-yl)-7-(2,3-dichlorophenyl)-6-fluoro-4-methyl-1H-pyrrolo[3,2-c]quinolin-8-yl)propanenitrile], the IC50 at KRAS G12D (setting [3]) and at KRAS G12V (setting [4]) was no more than 100 nM each time. For the compound `Cc1nc2c(F)c(-c3cccc(Cl)c3Cl)c(CCC#N)cc2c2c1cc([C@H]1C[C@H](OC(F)(F)c3ccccc3)CN1C(=O)C1CC1)n2[C@H]1[C@H]2CN[C@@H]1C2` [Example 79, 3-(1-((1R,4R,5S)-2-Azabicyclo[2.1.1]hexan-5-yl)-2-((2R,4S)-1-(cyclopropanecarbonyl)-4-(difluoro(phenyl)methoxy)pyrrolidin-2-yl)-7-(2,3-dichlorophenyl)-6-fluoro-4-methyl-1H-pyrrolo[3,2-c]quinolin-8-yl)propanenitrile], the concentration for half-maximal inhibition (IC50) on KRAS G12D (setting [3]) and on KRAS G12V (setting [4]) was no more than 100 nM each time. For `C[C@@H](O)c1nc2c(F)c(-c3cccc(Cl)c3Cl)c(CCC#N)cc2c2c1cc([C@H]1[C@@H](F)[C@H](Oc3ccccn3)CN1C(=O)C1CC1)n2[C@H]1[C@H]2CN[C@@H]1C2` [Example 85], the IC50 on KRAS G12D (setting [1]) and at KRAS G12V (setting [2]) was no more than 100 nM throughout. `Cc1nc2c(F)c(-c3cccc(Cl)c3Cl)c(CCC#N)cc2c2c1cc([C@H]1C[C@H](OCC3CCCCC3)CN1C(=O)C1CC1)n2[C@H]1[C@H]2CN[C@@H]1C2` [Example 86]: the IC50 on KRAS G12D (setting [1]) and on KRAS G12V (setting [2]) was no more than 100 nM each time. As to `Cc1nc2c(F)c(-c3cccc(Cl)c3Cl)c(CCC#N)cc2c2c1cc([C@H]1C[C@H](OC(=O)c3ccccc3)CN1C(=O)C1CC1)n2[C@H]1[C@H]2CN[C@@H]1C2` [Example 87], the IC50 on KRAS G12D (setting [1]) and on KRAS G12V (setting [2]) was no more than 100 nM throughout. Consider `Cc1nc2c(F)c(-c3cccc(Cl)c3Cl)c(CCC#N)cc2c2c1cc([C@H]1C[C@H](CCc3nccn3C)CN1C(=O)C1CC1)n2[C@H]1[C@H]2CN[C@@H]1C2` [Example 89], for which the IC50 on KRAS G12D (setting [1]) and at KRAS G12V (setting [2]) was no more than 100 nM in each case.

`Cc1ncc(CO[C@H]2C[C@H](c3cc4c(C)nc5c(F)c(-c6cccc(Cl)c6Cl)c(CCC#N)cc5c4n3[C@H]3[C@H]4CN[C@@H]3C4)N(C(=O)C3CC3)C2)s1` [Example 90]: the IC50 at KRAS G12D (setting [1]) and at KRAS G12V (setting [2]) was no more than 100 nM throughout. `Cc1cccc(CO[C@H]2C[C@H](c3cc4c(C)nc5c(F)c(-c6cccc(Cl)c6Cl)c(CCC#N)cc5c4n3[C@H]3[C@H]4CN[C@@H]3C4)N(C(=O)C3CC3)C2)c1` [Example 91]: the IC50 on KRAS G12D (setting [1]) and at KRAS G12V (setting [2]) was no more than 100 nM in each case.

For `Cc1ccc(CO[C@H]2C[C@H](c3cc4c(C)nc5c(F)c(-c6cccc(Cl)c6Cl)c(CCC#N)cc5c4n3[C@H]3[C@H]4CN[C@@H]3C4)N(C(=O)C3CC3)C2)cc1` [Example 92], the concentration for half-maximal inhibition (IC50) on KRAS G12D (setting [1]) and on KRAS G12V (setting [2]) was no more than 100 nM throughout. For the compound `Cc1nc2c(F)c(-c3cccc(Cl)c3Cl)c(CCC#N)cc2c2c1cc([C@H]1C[C@H](OC(C)c3ccccc3)CN1C(=O)C1CC1)n2[C@H]1[C@H]2CN[C@@H]1C2` (stereo partly shown) [Example 93], the IC50 at KRAS G12D (setting [1]) and at KRAS G12V (setting [2]) was no more than 100 nM throughout. As for `Cc1nc2c(F)c(-c3cccc(Cl)c3Cl)c(CCC#N)cc2c2c1cc([C@H]1C[C@H](OCc3ccccn3)CN1C(=O)C1CC1)n2[C@H]1[C@H]2CN[C@@H]1C2` [Example 94], the IC50 on KRAS G12D (setting [1]) and at KRAS G12V (setting [2]) was no more than 100 nM each time.

As to `Cc1nc2c(F)c(-c3cccc(Cl)c3Cl)c(CCC#N)cc2c2c1cc([C@H]1C[C@H](OCc3cccnc3)CN1C(=O)C1CC1)n2[C@H]1[C@H]2CN[C@@H]1C2` [Example 95], the IC50 at KRAS G12D (setting [1]) and at KRAS G12V (setting [2]) was no more than 100 nM each time. Take `Cc1nc2c(F)c(-c3cccc(Cl)c3Cl)c(CCC#N)cc2c2c1cc([C@H]1C[C@H](OCc3ccncc3)CN1C(=O)C1CC1)n2[C@H]1[C@H]2CN[C@@H]1C2` [Example 96]: the IC50 at KRAS G12D (setting [1]) and at KRAS G12V (setting [2]) was no more than 100 nM each time. Consider `Cc1nc2c(F)c(-c3cccc(Cl)c3Cl)c(CCC#N)cc2c2c1cc([C@H]1C[C@H](OCc3cncs3)CN1C(=O)C1CC1)n2[C@H]1[C@H]2CN[C@@H]1C2` [Example 97], for which the IC50 at KRAS G12D (setting [1]) and on KRAS G12V (setting [2]) was no more than 100 nM each time. As to `Cc1nc2c(F)c(-c3cccc(Cl)c3Cl)c(CCC#N)cc2c2c1cc([C@H]1C[C@H](OCc3ccccc3C#N)CN1C(=O)C1CC1)n2[C@H]1[C@H]2CN[C@@H]1C2` [Example 98], the IC50 at KRAS G12D (setting [1]) and at KRAS G12V (setting [2]) was no more than 100 nM throughout.

Turning to `Cc1nc2c(F)c(-c3cccc(Cl)c3Cl)c(CCC#N)cc2c2c1cc([C@H]1C[C@H](OCc3cn(C)nn3)CN1C(=O)C1CC1)n2[C@H]1[C@H]2CN[C@@H]1C2` [Example 100], the IC50 on KRAS G12D (setting [1]) and on KRAS G12V (setting [2]) was no more than 100 nM in each case. Turning to `Cc1nc2c(F)c(-c3cccc(Cl)c3Cl)c(CCC#N)cc2c2c1cc([C@H]1C[C@H](OCc3ccn(C)n3)CN1C(=O)C1CC1)n2[C@H]1[C@H]2CN[C@@H]1C2` [Example 101], the IC50 on KRAS G12D (setting [1]) and at KRAS G12V (setting [2]) was no more than 100 nM throughout. For the compound `Cc1nc2c(F)c(-c3cccc(Cl)c3Cl)c(CCC#N)cc2c2c1cc([C@H]1C[C@H](Oc3ccccc3)CN1C(=O)C1CC1)n2[C@H]1[C@H]2CN[C@@H]1C2` [Example 103], the IC50 on KRAS G12D (setting [1]) and on KRAS G12V (setting [2]) was no more than 100 nM throughout. For `Cc1nc2c(F)c(-c3cccc(Cl)c3Cl)c(CCC#N)cc2c2c1cc([C@H]1C[C@H](OC(=O)c3ccccc3)CN1C(=O)C1CC1)n2[C@H]1[C@H]2CN[C@@H]1C2` [Example 270], the IC50 at KRAS G12D (setting [1]) is no more than 100 nM.
